Laboratory results published in ChEMBL document CHEMBL3739376, “Synthesis and biological evaluation of N-(4-phenylthiazol-2-yl)cinnamamide derivatives as novel potential anti-tumor agents” (Medchemcomm, 2015).
The source made the active and inactive calls. The rule behind the calls is not given here.

Legend:
K562 [1] = test: Cytotoxicity against human K562 cells assessed as inhibition of cell proliferation after 96 hrs by MTT assay; format: functional, cell-based; conditions: K562, 96 h
Jurkat [2] = test: Cytotoxicity against human Jurkat cells assessed as inhibition of cell proliferation after 96 hrs by MTT assay; format: functional, cell-based
MDA-MB-468 = test: Cytotoxicity against human MDA-MB-468 cells assessed as inhibition of cell proliferation after 96 hrs by MTT assay; format: functional, cell-based; conditions: MDA-MB-468, 96 h
[3] = Cytotoxicity against human MV411 cells assessed as inhibition of cell proliferation after 96 hrs by MTT assay; format: functional, cell-based; conditions: MV4-11, 96 h
A549 [4] = test: Cytotoxicity against human A549 cells assessed as inhibition of cell proliferation after 96 hrs by MTT assay; format: functional, cell-based; conditions: A549, 96 h
[5] = Cytotoxicity against human OCI-LY1 cells assessed as inhibition of cell proliferation after 96 hrs by MTT assay; format: functional, cell-based; conditions: OCI-Ly1, 96 h
[6] = Cytotoxicity against human Bel7402 cells assessed as inhibition of cell proliferation after 96 hrs by MTT assay; format: functional, cell-based; conditions: Bel-7402, 96 h
Bel-7402 [7] = test: Induction of apoptosis in human Bel7402 cells at 1.1 uM after 48 hrs by propidium iodide staining-based fluorescence microscopic analysis; format: functional
A549 [8] = test: Induction of apoptosis in human A549 cells at 3.3 uM after 48 hrs by propidium iodide staining-based fluorescence microscopic analysis; format: functional
[9] = Cytotoxicity against human LO2 cells assessed as inhibition of cell proliferation after 96 hrs by MTT assay; format: cell-based; conditions: L02, 96 h
Vero = test: Cytotoxicity against african green monkey Vero cells assessed as inhibition of cell proliferation after 96 hrs by MTT assay; format: cell-based; conditions: Chlorocebus sabaeus
HEK293 = test: Cytotoxicity against HEK293 cells assessed as inhibition of cell proliferation after 96 hrs by MTT assay; format: cell-based; conditions: Homo sapiens, HEK293, 96 h
MCF7 = test: Cytotoxicity against human MCF7 cells assessed as inhibition of cell proliferation after 96 hrs by MTT assay; format: functional, cell-based; conditions: MCF7, 96 h
Bel-7402 [10] = test: Induction of apoptosis in human Bel7402 cells at 3.3 uM after 48 hrs by propidium iodide staining-based fluorescence microscopic analysis; format: functional
Bel-7402 [11] = test: Induction of apoptosis in human Bel7402 cells at 0.37 uM after 48 hrs by propidium iodide staining-based fluorescence microscopic analysis; format: functional
Bel-7402 [12] = test: Induction of apoptosis in human Bel7402 cells assessed as condensed nuclei at 0.37 to 10 uM after 48 hrs by […] staining-based fluorescence microscopic analysis; format: functional, cell-based
Bel-7402 [13] = test: Induction of apoptosis in human Bel7402 cells at 10 uM after 48 hrs by propidium iodide staining-based fluorescence microscopic analysis; format: functional
Jurkat [14] = test: Induction of apoptosis in human Jurkat cells at 3.3 uM after 48 hrs by propidium iodide staining-based fluorescence microscopic analysis; format: functional
K562 [15] = test: Induction of apoptosis in human K562 cells at 3.3 uM after 48 hrs by propidium iodide staining-based fluorescence microscopic analysis; format: functional
Bel-7402 [16] = test: Induction of apoptosis in human Bel7402 cells after 48 hrs by propidium iodide staining-based fluorescence microscopic analysis; format: functional, cell-based

## CC(=O)O[C@H]1C(=O)[C@@]2(C)[C@H]([C@H](OC(=O)c3ccccc3)[C@]3(O)C[C@H](OC(=O)[C@H](O)[C@@H](NC(=O)c4ccccc4)c4ccccc4)C(C)=C1C3(C)C)[C@]1(OC(C)=O)CO[C@@H]1C[C@@H]2O [PACLITAXEL]
K562 [1]
  IC50: 1260 nM
Jurkat [2]
  IC50: 690 nM
MDA-MB-468
  IC50: 310 nM
[3]
  IC50: 750 nM
A549 [4]
  IC50: 740 nM
[5]
  IC50: 180 nM
[6]
  IC50: > 10000 nM

## O=C(/C=C/c1ccc(N2CCOCC2)cc1)Nc1nc(-c2cccc(F)c2)cs1
K562 [1]
  IC50: 5730 nM

## Cc1ccc(-c2csc(NC(=O)/C=C/c3ccc(N4CCOCC4)cc3)n2)cc1
K562 [1]
  IC50: > 90000 nM

## O=C(/C=C/c1ccc(N2CCOCC2)cc1)Nc1nc(-c2c(F)cc(F)cc2F)cs1
K562 [1]
  IC50: 5150 nM

## COc1cccc(-c2csc(NC(=O)/C=C/c3ccc(N4CCOCC4)cc3)n2)c1
K562 [1]
  IC50: 25200 nM

## Cc1cc(C)c(-c2csc(NC(=O)/C=C/c3ccc(N4CCCCC4)cc3)n2)c(C)c1
K562 [1]
  IC50: 4060 nM

## Cc1cc(C)c(-c2csc(NC(=O)/C=C/c3ccncc3)n2)c(C)c1
K562 [1]
  IC50: 9390 nM

## O=C(/C=C/c1ccc(N2CCOCC2)cc1)Nc1nc(-c2ccccc2)cs1
K562 [1]
  IC50: 12600 nM

## CCOc1cc(C)c(-c2csc(NC(=O)/C=C/c3ccc(N4CCOCC4)cc3)n2)c(C)c1
K562 [1]
  IC50: 2090 nM

## Cc1cc(C)c(-c2csc(NC(=O)/C=C/c3ccc(C(C)(C)C)cc3)n2)c(C)c1
K562 [1]
  IC50: 180 nM
Bel-7402 [7]
  Activity: 25.37%
Jurkat [2]
  IC50: 35 nM
A549 [8]
  Activity: 23.13%
MDA-MB-468
  IC50: > 30000 nM
[3]
  IC50: 110 nM
[9]
  IC50: > 90000 nM
Vero
  IC50: > 90000 nM
HEK293
  IC50: > 90000 nM
MCF7
  IC50: > 30000 nM
Bel-7402 [10]
  Activity: 48.15%
A549 [4]
  IC50: 270 nM
Bel-7402 [11]
  Activity: 5.37%
Bel-7402 [12]
  Activity: Active
[5]
  IC50: 1540 nM
Bel-7402 [13]
  Activity: 61.35%
[6]
  IC50: 740 nM
Jurkat [14]
  Activity: 14.64%
K562 [15]
  Activity: 21.04%
Bel-7402 [16]
  Activity: Dose-dependent effect

## Cc1cc(C)c(-c2csc(NC(=O)/C=C/c3ccc(C(F)(F)F)cc3)n2)c(C)c1
K562 [1]
  IC50: 480 nM
Jurkat [2]
  IC50: 1150 nM
MDA-MB-468
  IC50: 1530 nM
[3]
  IC50: 3650 nM
[9]
  IC50: > 90000 nM
Vero
  IC50: > 90000 nM
HEK293
  IC50: > 90000 nM
MCF7
  IC50: > 30000 nM
A549 [4]
  IC50: 200 nM
[5]
  IC50: 3690 nM
[6]
  IC50: 34100 nM

## O=C(/C=C/c1ccc(N2CCOCC2)cc1)Nc1nc(-c2ccc(F)cc2)cs1
K562 [1]
  IC50: 7300 nM

## Cc1ccccc1-c1csc(NC(=O)/C=C/c2ccc(N3CCOCC3)cc2)n1
K562 [1]
  IC50: 3740 nM

## COc1cc(C)c(-c2csc(NC(=O)/C=C/c3ccc(N4CCOCC4)cc3)n2)c(C)c1
K562 [1]
  IC50: 1000 nM
Jurkat [2]
  IC50: 1240 nM
MDA-MB-468
  IC50: > 30000 nM
[3]
  IC50: 2730 nM
[9]
  IC50: > 90000 nM
Vero
  IC50: > 90000 nM
HEK293
  IC50: > 90000 nM
MCF7
  IC50: 1450 nM
A549 [4]
  IC50: 1560 nM
[5]
  IC50: > 30000 nM
[6]
  IC50: 9650 nM

## COCCOc1ccc(/C=C/C(=O)Nc2nc(-c3c(C)cc(C)cc3C)cs2)cc1
K562 [1]
  IC50: 1490 nM

## COc1ccc(-c2csc(NC(=O)/C=C/c3ccc(N4CCOCC4)cc3)n2)cc1
K562 [1]
  IC50: 14600 nM

## Cc1cc(C)c(-c2csc(NC(=O)/C=C/c3ccc(Br)cc3)n2)c(C)c1
K562 [1]
  IC50: 4590 nM
